Assay results as given in patent publication US20210220434A1, “Treatment of Vascular Occlusion by Activation of Notch Signaling” (The Regents of the University of California, priority 2018, published 2021).

Assays:
[1] = system: distal middle cerebral artery occlusion (dMCAO) mouse model; assay: Collateral artery size and function after dMCAO stroke induction; assay type: in vivo
From the text: (§1) FIGS. 6A, 6B, and 6C. […] FIG. 6A depicts the time course of the experiment, with recombinant DLL4 administered one day prior to and for seven days following dMCAO stroke induction. FIG. 6B: Collateral artery diameter, velocity, and flux, and the area between the vertical lines denotes the period of DLL4 administration. Triangles: rDLL4, Circles: Control. Control, n=5, Treated; n=5. *P<0.05, **P<0.01. FIG. 6C depicts ladder test results for mice are subject to behavior test at 15 to 17 days after experimental stroke, the scores being the average of the two measurements.
(§2) Collateral artery size and function was assessed at seven and fourteen days following injury.

[2] = system: distal middle cerebral artery occlusion (dMCAO) mouse model; assay: Ladder test of neurological function after dMCAO; assay type: in vivo
From the text: as §1, §2

[3] = wild type C57BL/6J mice, dMCAO, daily iv for eight days from the day before dMCAO, day 7, vs control

Question: For “rDLL4: recombinant mouse DLL4 (Delta-like ligand 4), a Notch activating ligand, given intravenously”, which “collateral artery size and function (diameter, velocity, flux)” value ([1]; day 14 after dMCAO, 7 days after administration was halted, vs control) is on record?
Answer: Significant improvements in the treated mice persisted

Question: What about the cerebral blood flow ([1]; following dMCAO, FIG. 6 legend) of the same substance?
Answer: preserves cerebral blood flow

Question: What about the growth of collaterals ([1]; following dMCAO, FIG. 6 legend) of the same substance?
Answer: improves growth of collaterals

Question: And the collateral artery diameter [1, 3]?
Answer: significantly improved

Question: What about the collateral artery flux [1, 3] of the same substance?
Answer: significantly improved

Question: What about the collateral artery velocity [1, 3] of the same substance?
Answer: significantly improved

Question: And the “neurological function, ladder test” value ([2]; day 15 and 17 after dMCAO, vs control)?
Answer: higher in the treated mice

Question: And the neurological function ([2]; following dMCAO, FIG. 6 legend)?
Answer: improving neurological function
